Results taken from PubChem BioAssay (NCI).
“And” between values parts separate entries of the source, which are not always exact repeats. Identical values can stand only once.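 Compound exposure: 48 hours, 5 concentrations, 96-well plates. GI50 marks 50% less growth. TGI: concentration producing complete growth inhibition.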 Where a SMILES comes first, the peptide text is derived from it. [ ]: non-standard residue; d: D form. The star is where a group is joined. Bn2Val = CC(C)[C@@H](C(=O)*)N(Cc1ccccc1)Cc1ccccc1; NH(3,4-diMeO-benzyl) = COc1ccc(CN*)cc1OC; NMeV = CN[C@H](C(=O)O)C(C)C; dNMeA = CN[C@H](C)C(=O)O

Legend:
Test in all cases: DTP human tumour cell line panel, 48 h
LXFL 529 NSCLC = test system: LXFL 529 NSCLC
HOP-18 NSCLC = test system: HOP-18 NSCLC
RXF-631 renal = test system: RXF-631 renal
DMS 114 small cell lung = test system: DMS 114 small cell lung
DLD-1 colon = test system: DLD-1 colon
XF 498 CNS = test system: XF 498 CNS
MDA-MB-231 breast = test system: MDA-MB-231 breast
MCF7 breast = test system: MCF7 breast
MDA-N = test system: MDA-N

With `CC(C)(C)C1=NC(S)NC(CCC(=O)Nc2ccccc2[N+](=O)[O-])=C1` (configuration not stated) the TGI (LXFL 529 NSCLC) was over 100 µM, the TGI (HOP-18 NSCLC) was over 100 µM and the TGI (RXF-631 renal) was over 100 µM. The TGI (DMS 114 small cell lung) was over 100 µM and the TGI (DLD-1 colon) was over 100 µM.
`Cc1c(C(=O)/C=C/c2cccc3ccccc23)[n+](=O)c2ccccc2n1[O-]` showed a TGI (LXFL 529 NSCLC) of 20.6 µM, a TGI (HOP-18 NSCLC) of 28.6 µM and a TGI (RXF-631 renal) of 56.4 µM. It also gave a TGI (DMS 114 small cell lung) of 16.8 µM and a TGI (DLD-1 colon) of 23.3 µM.
With `OCCNCO` the TGI (LXFL 529 NSCLC) was over 100 µM and the TGI (XF 498 CNS) was over 100 µM.
Work on `NC1(CCCCCCCCCCC(=O)O)CNCCNCCNCCNC1` yielded a TGI (DMS 114 small cell lung) of over 100 µM and a TGI (DLD-1 colon) of over 100 µM.
For `Cc1c(Cl)cccc1Nc1ncccc1C(=O)O`, the GI50 (MDA-MB-231 breast) was 92.3 µM, the TGI (MDA-MB-231 breast) was over 100 µM and the GI50 (MCF7 breast) was over 100 µM. It also gave a TGI (MCF7 breast) of over 100 µM.
In the case of `N#Cc1cnn2ccn(C3OC(COC(=O)c4ccccc4)C(OC(=O)c4ccccc4)C3OC(=O)c3ccccc3)c12` (configuration not stated), the TGI (MDA-MB-231 breast) is reported as over 21.5 µM, the TGI (MCF7 breast) is reported as over 46.4 µM and the TGI (MDA-N) is reported as over 21.5 µM.
With `NNC(=O)c1cnn(-c2ccnc3c(C(F)(F)F)cccc23)c1N` the GI50 (MDA-MB-231 breast) was over 100 µM, the TGI (MDA-MB-231 breast) was over 100 µM and the GI50 (MCF7 breast) was over 100 µM. For the same compound, the TGI (MCF7 breast) was over 100 µM.
For `O=C1CSC(N2CCN(c3cccc(Cl)c3)CC2)=N1`, the GI50 (MDA-MB-231 breast) was over 100 µM, the TGI (MDA-MB-231 breast) was over 100 µM and the GI50 (MCF7 breast) was over 100 µM. For the same compound, the TGI (MCF7 breast) was over 100 µM.
For `Cc1nc2nnc(C)n2c2c1C(=O)Nc1ccccc1N2`, the TGI (LXFL 529 NSCLC) was over 100 µM, the TGI (HOP-18 NSCLC) was over 100 µM and the TGI (DMS 114 small cell lung) was over 100 µM. The TGI (XF 498 CNS) was over 100 µM and the TGI (DLD-1 colon) was over 100 µM.
For `OCc1c(-c2cccc3ccccc23)sc(-c2cccc3ccccc23)c1CO`, the TGI (LXFL 529 NSCLC) was 27.6 µM, the TGI (HOP-18 NSCLC) was 26.4 µM and the TGI (RXF-631 renal) was 37.9 µM. It also gave a TGI (DMS 114 small cell lung) of 22.8 µM and a TGI (XF 498 CNS) of 19.3 µM.
In the case of `CC1=C(CCCOC(=O)NCCCl)C2=C(C)C3(CC3)[C@@](C)(O)C(=O)C2=C1`, the GI50 (MDA-MB-231 breast) is reported as 2.56 µM, the TGI (MDA-MB-231 breast) is reported as 8.35 µM and the GI50 (MCF7 breast) is reported as 2.24 µM. The TGI (MCF7 breast) was over 100 µM.
Work on `Cc1cccc(C(C)(C)C)c1NC(=O)C(=O)Cc1nc2ccccc2s1` yielded a TGI (LXFL 529 NSCLC) of over 100 µM, a TGI (HOP-18 NSCLC) of over 100 µM and a TGI (RXF-631 renal) of over 100 µM. It also gave a TGI (DMS 114 small cell lung) of over 100 µM and a TGI (DLD-1 colon) of over 100 µM.
Compound `COc1ccc(CNC(=O)COc2ccc(/C=N/Nc3nc4ccccc4s3)cc2)cc1` has a GI50 (MDA-MB-231 breast) of 1.86 µM, a TGI (MDA-MB-231 breast) of 4.45 µM and a GI50 (MCF7 breast) of 3.52 µM. It also gave a TGI (MCF7 breast) of 27.5 µM.
`O=S(=O)(O)C(O)/C=C/c1ccccc1` (configuration not stated) showed a TGI (LXFL 529 NSCLC) of over 100 µM, a TGI (HOP-18 NSCLC) of over 100 µM and a TGI (DMS 114 small cell lung) of over 100 µM. It also gave a TGI (DLD-1 colon) of over 100 µM.
In the case of `O=C(O)Cc1c[nH]c2ccc(F)cc12`, the TGI (MDA-MB-231 breast) is reported as over 100 µM, the TGI (MCF7 breast) is reported as over 100 µM and the TGI (MDA-N) is reported as over 100 µM.
Work on `COc1cc2c(NCCCCCCO[N+](=O)[O-])ncnc2c(OC)c1OC` yielded a TGI (MDA-MB-231 breast) of 38 µM, a TGI (MCF7 breast) of 71.4 µM and a TGI (MDA-N) of 56.4 µM.
In the case of `O=[n+]1c(CBr)c(CBr)n([O-])c2ccccc21`, the GI50 (MDA-MB-231 breast) is reported as 11.9 µM, the TGI (MDA-MB-231 breast) is reported as 24.5 µM and the GI50 (MCF7 breast) is reported as 3.11 µM. The TGI (MCF7 breast) was 12.4 µM.
With `C[C@]12CCC(=O)C=C1CC[C@@H]1C2CC[C@]2(C)NC(=O)C(C#N)CC12` (some centres not stated) the TGI (LXFL 529 NSCLC) was over 100 µM, the TGI (DMS 114 small cell lung) was over 100 µM and the TGI (XF 498 CNS) was over 100 µM. For the same compound, the TGI (DLD-1 colon) was over 100 µM.
`O=C(O/N=C1/CCC/C1=C\c1ccccc1)c1ccc([N+](=O)[O-])cc1` gave a TGI (LXFL 529 NSCLC) of over 100 µM, a TGI (HOP-18 NSCLC) of over 100 µM and a TGI (RXF-631 renal) of over 100 µM. For the same compound, the TGI (DMS 114 small cell lung) was over 100 µM and the TGI (DLD-1 colon) was over 100 µM.
Compound `C1CN2N3CCCC23C1` (configuration not stated) has a TGI (LXFL 529 NSCLC) of over 100 µM, a TGI (HOP-18 NSCLC) of over 100 µM and a TGI (DMS 114 small cell lung) of over 100 µM. For the same compound, the TGI (XF 498 CNS) was over 100 µM and the TGI (DLD-1 colon) was over 100 µM.
`CCOc1ccc2nc(NC(=O)/C(CC(=O)CC(C3=C(O)c4ccccc4CC3=O)c3ccccc3)=N\O)sc2c1` (configuration not stated) gave a TGI (MDA-MB-231 breast) of over 100 µM, a TGI (MCF7 breast) of over 100 µM and a TGI (MDA-N) of over 100 µM.
Work on `COc1ccc(CN2CCCC(C(=O)c3ccc(C(F)(F)F)cc3)C2)c(O)c1` (configuration not stated) yielded a GI50 (MDA-MB-231 breast) of 13.6 µM, a TGI (MDA-MB-231 breast) of 32 µM and a GI50 (MCF7 breast) of 18 µM. For the same compound, the TGI (MCF7 breast) was 54.7 µM.
Work on `COc1cc([C@@H]2c3cc4c(cc3[C@@H](NC(=O)c3cccc([N+](=O)[O-])c3)C3COC(=O)[C@@H]32)OCO4)cc(OC)c1O` (some centres not stated) yielded a TGI (LXFL 529 NSCLC) of over 100 µM, a TGI (RXF-631 renal) of 18.8 µM and a TGI (DLD-1 colon) of over 67.9 µM.
With `C/C(=N\NC(N)=S)c1ccc(C)cc1C` the TGI (LXFL 529 NSCLC) was over 100 µM, the TGI (HOP-18 NSCLC) was over 100 µM and the TGI (RXF-631 renal) was over 100 µM. It also gave a TGI (XF 498 CNS) of over 100 µM and a TGI (DLD-1 colon) of over 100 µM.
`CNC(=O)c1cc(Oc2ccc3c(c2)sc2nc(-c4ccc(N)cc4)cn23)ccn1` gave a GI50 (MDA-MB-231 breast) of 0.726 µM, a TGI (MDA-MB-231 breast) of over 100 µM and a GI50 (MCF7 breast) of 0.128 µM. It also gave a TGI (MCF7 breast) of over 100 µM.
For `COc1cc2c(cc1OC)C1C=NC(C(=O)O)(C2)c2ccccc21` (configuration not stated), the TGI (LXFL 529 NSCLC) was over 100 µM, the TGI (RXF-631 renal) was over 100 µM and the TGI (DMS 114 small cell lung) was over 100 µM. The TGI (DLD-1 colon) was over 100 µM.
`Cc1cccc2c3ccc4c(c3n(C)c12)C(=O)C=CC4=O` was tested, and the TGI (LXFL 529 NSCLC) was over 100 µM, the TGI (RXF-631 renal) was over 100 µM and the TGI (DMS 114 small cell lung) was over 100 µM. For the same compound, the TGI (DLD-1 colon) was over 100 µM.
With `O=C1/C(=C/c2ccccc2)CN(C(=O)Oc2ccc(Cl)cc2)C/C1=C\c1ccccc1` the TGI (LXFL 529 NSCLC) was 3.64 µM, the TGI (HOP-18 NSCLC) was 36.6 µM and the TGI (DMS 114 small cell lung) was 3.68 µM. It also gave a TGI (XF 498 CNS) of 5.71 µM and a TGI (DLD-1 colon) of 3.61 µM.
`CC[n+]1ccc2c(c1)C(=O)c1nccc3c1c-2nc1ccccc13` gave a GI50 (MDA-MB-231 breast) of 2.17 µM, a TGI (MDA-MB-231 breast) of 14 µM and a GI50 (MCF7 breast) of 0.587 µM. The TGI (MCF7 breast) was 4.84 µM.
Compound `CCCNC(=O)OCc1c(COC(=O)NCCC)c(-c2ccc(Cl)c(Cl)c2)n2c1CCC2` has a TGI (MDA-MB-231 breast) of 21.9 µM and a TGI (MCF7 breast) of 19.8 µM.
Compound `c1ccc(-c2nnc(-c3nn(-c4ccccc4)c4nc5ccccc5nc34)o2)cc1` has a TGI (LXFL 529 NSCLC) of over 100 µM, a TGI (HOP-18 NSCLC) of over 100 µM and a TGI (DMS 114 small cell lung) of over 100 µM. For the same compound, the TGI (XF 498 CNS) was 61 µM and the TGI (DLD-1 colon) was over 100 µM.
For `CCOC(=O)c1c(N)n(-c2ccccc2)c(=S)n(-c2ccccc2)c1=O`, the TGI (MDA-MB-231 breast) was over 100 µM, the TGI (MCF7 breast) was over 100 µM and the TGI (MDA-N) was over 100 µM.
With `O=C(N/N=C/c1cccc(O)c1O)N/N=C/c1cccc(O)c1O` the TGI (LXFL 529 NSCLC) was over 100 µM, the TGI (HOP-18 NSCLC) was 67.1 µM and the TGI (DMS 114 small cell lung) was over 100 µM. For the same compound, the TGI (XF 498 CNS) was over 100 µM.
With `O=C1c2ccccc2C(=O)c2c1ccc1[nH]c(CCl)nc21` the GI50 (MDA-MB-231 breast) was 3.74 µM, the TGI (MDA-MB-231 breast) was 15.3 µM and the GI50 (MCF7 breast) was 1.75 µM. It also gave a TGI (MCF7 breast) of 4.2 µM.
For `COc1ccc(CNC(=O)[C@@H](C)N(C)C(=O)[C@@H]2CCCN2C(=O)[C@H](C(C)C)N(C)C(=O)[C@@H](NC(=O)[C@H](C(C)C)N(Cc2ccccc2)Cc2ccccc2)C(C)C)cc1OC` (Bn2Val-V[NMeV]P[dNMeA]-{NH(3,4-diMeO-benzyl)}), the GI50 (MDA-MB-231 breast) was 10.8 µM, the TGI (MDA-MB-231 breast) was 18.8 µM and 22.7 µM and the TGI (MCF7 breast) was 25.3 µM. For the same compound, the GI50 (MDA-N) was 11.7 µM and the TGI (MDA-N) was 20.2 µM and 24.9 µM.
`O=C(O)c1cc(S(=O)(=O)N=NC=C2c3ccccc3N(O)c3ccccc32)ccc1O` gave a TGI (LXFL 529 NSCLC) of 28.6 µM, a TGI (HOP-18 NSCLC) of 85.4 µM and a TGI (DMS 114 small cell lung) of 50.8 µM. It also gave a TGI (DLD-1 colon) of 64.6 µM.
With `CCCCCCCCCCCCCCC1OC(=O)c2ccccc21` (configuration not stated) the TGI (LXFL 529 NSCLC) was over 100 µM, the TGI (HOP-18 NSCLC) was over 100 µM and the TGI (RXF-631 renal) was over 100 µM. The TGI (DMS 114 small cell lung) was 90.4 µM and the TGI (DLD-1 colon) was over 100 µM.
With `S=C1NCCN1C1=Nc2ccccc2CO1` the GI50 (MDA-MB-231 breast) was over 100 µM, the TGI (MDA-MB-231 breast) was over 100 µM and the GI50 (MCF7 breast) was over 100 µM. For the same compound, the TGI (MCF7 breast) was over 100 µM.
